We go through 20 compounds from patent US20230295201A1 (Gilead Sciences, Inc., priority 2020, published 2023).

Structures are written as SMILES. Where two headings read alike, the source gives them in different places. A value given as a limit tells only on which side of the number the result lay.

One experiment has as its system RSV strain A2. Description: RSV HEp-2 EC50 (infectious cytopathic cell protection assay). It counts as cell-based. The following applies: HEp-2 cells, RSV A2, 4 days, read-out: RSV HEp-2 EC50. How it is done:
Antiviral activity against RSV is determined using an infectious cytopathic cell protection assay in HEp-2 cells. In this assay, compounds inhibiting viral infection and/or replication produce a cytoprotective effect against the virus-induced cell killing that can be quantified using a cell viability reagent. The techniques used here are novel adaptations of methods described in published literature (Chapman et al., Antimicrob Agents Chemother. 2007, 51(9):3346-53.)
HEp-2 cells are obtained from ATCC (Manassas, VI) and maintained in MEM media supplemented with 10% fetal bovine serum and penicillin/streptomycin. Cells are passaged twice a week and kept at subconfluent stage. Commercial stock of RSV strain A2 (Advanced Biotechnologies, Columbia, MD) is titered before compound testing to determine the appropriate dilution of the virus stock that generates desirable cytopathic effect in HEp-2 cells.
For antiviral tests, HEp-2 cells are grown in large cell culture flasks to near confluency but not fully so. The compounds to be tested are prediluted in DMSO in 384-well compound dilution plates, either in an 8 or 40 sample per plate standardized dose response format. 3-fold serial dilution increments of each test compound are prepared in the plates and test samples are transferred via acoustic transfer apparatus (Echo, Labcyte) at 100 nL per well into cell culture assay 384-well plates. Each compound dilution is transferred in single or quadruplicate samples into dry assay plates, which are stored until assay is ready to go. The positive and negative controls are laid out in opposite on ends of the plate in vertical blocks (1 column).
Subsequently, an infectious mixture is prepared using an appropriate dilution of virus stock previously determined by titration with cells at a density of 50,000/ml and 20 µL/well is added to test plates w/compounds via automation (uFlow, Biotek). Each plate includes negative and positive controls (16 replicates each) to create 0% and 100% virus inhibition standards, respectively. Following the infection with RSV, testing plates are incubated for 4 days in a 37° C. cell culture incubator. After the incubation, a cell viability reagent, Cell TiterGlo (Promega, Madison, WI) is added to the assay plates, which are incubated briefly, and a luminescent readout is measured (Envision, Perkin Elmer) in all the assay plates. The RSV-induced cytopathic effect, percentage inhibition, is determined from the levels of remaining cell viability. […] Various potent anti-RSV tool compounds are used as positive controls for antiviral activity.

A further experiment has as its system RSV A2. Description: RSV NHBE EC50 (RSV A2 antiviral assay in normal human bronchial epithelial cells). It is filed as cell-based. As to conditions: read-out: RSV NHBE EC50. How it is done: Normal human bronchial epithelial (NHBE) cells were purchased from Lonza (Walkersville, MD, Cat #CC-2540) and cultured in Bronchial Epithelial Growth Media (BEGM) (Lonza, Walkersville, MD, Cat #CC-3170). The cells were passaged 1-2 times per week to maintain <80% confluency. The NHBE cells were discarded after 6 passages in culture.
To conduct the RSV A2 antiviral assay, NHBE cells were plated in 96-well plates at a density of 7,500 cells per well in BEGM and allowed to attach overnight at 37° C. Following attachment, 100 μL of cell culture media was removed and 3-fold serially diluted compound was added using a Hewlett-Packard D300 Digital Dispenser. The final concentration of DMSO was normalized to 0.05%. Following compound addition, the NHBE cells were infected by the addition of 100 μL of RSV A2 at a titer of 1×10^4.5 tissue culture infectious doses/mL in BEGM and then incubated at 37° C. for 4 days. […] The mixtures were incubated for 10 minutes at 25° C., and the luminescence signal was quantified on an Envision luminescence plate reader.

[1] abbreviates: human respiratory syncytial virus, 96 h.
Setting [2] is: human respiratory syncytial virus, 96 h, NHBE cells, RSV A2, 4 days.
Where [3] appears, read: human respiratory syncytial virus, HEp-2, 96 h.
Where [4] appears, read: human respiratory syncytial virus, NHBE, 96 h, NHBE cells, RSV A2, 4 days.

As a reminder, the EC50 is the concentration needed to bring the measured effect to its halfway point. In the case of `CC(C)(C)C(=O)OCCNP(=O)(OCC1(C#N)OC(c2ccc3c(N)ncnn23)C(O)C1O)Oc1ccccc1` (single isomer, unassigned) [Example 13], the EC50 was determined as 0.093 µM in the experiment with RSV strain A2 and 0.03 µM in the experiment with RSV A2 (NHBE cells, RSV A2, 4 days).

Consider `CCC(CC)COC(=O)[C@H](C)NP1(=O)OC[C@@]2(C#N)O[C@@H](c3ccc4c(N)ncnn34)[C@H](O)[C@@H]2O1` (stereo partly drawn) [Example 169, 2-ethylbutyl ((4aR,6S,7S,7aS)-6-(4-aminopyrrolo[2,1-f][1,2,4]triazin-7-yl)-4a-cyano-7-hydroxy-2-oxidotetrahydro-4H-furo[3,2-d][1,3,2]dioxaphosphinin-2-yl)-L-alaninate], for which the EC50 with RSV strain A2 (setting [1]) amounted to 0.524 µM; with RSV A2 (setting [2]) it was 0.965 µM.

In the case of `C[C@H](NP(=O)(OC[C@@]1(C#N)O[C@@H](c2ccc3c(N)ncnn23)[C@H](O)[C@@H]1O)Oc1ccccc1)C(=O)NC1CCCCC1` (stereo partly drawn) [Example 138, ((2R,3S,4R,5S)-5-(4-aminopyrrolo[2,1-f][1,2,4]triazin-7-yl)-2-cyano-3,4-dihydroxytetrahydrofuran-2-yl)methyl phenyl ((S)-1-(cyclohexylamino)-1-oxopropan-2-yl)phosphoramidate], the EC50 with RSV strain A2 (setting [3]) is 38.5 µM; in the experiment on RSV A2 (setting [4]), more than 5 µM.

`CCC(CC)COC(=O)[C@H](CC(C)C)NP(=O)(OC[C@@]1(C#N)O[C@@H](c2ccc3c(N)ncnn23)[C@H](O)[C@@H]1O)Oc1ccccc1` (single isomer, unassigned) [Example 128]: the concentration for a half-maximal effect (EC50) with RSV strain A2 worked out at 1.87 µM; with RSV A2 (NHBE cells, RSV A2, 4 days), 0.164 µM.

`C[C@H](NP(=O)(OC[C@@]1(C#N)O[C@@H](c2ccc3c(N)ncnn23)[C@H](O)[C@@H]1O)Oc1ccccc1)C(=O)O[C@H]1CCOC1` (mixture of isomers) [Example 64, (S)-Tetrahydrofuran-3-yl ((((2R,3S,4R,5S)-5-(4-aminopyrrolo[2,1-f][1,2,4]triazin-7-yl)-2-cyano-3,4-dihydroxytetrahydrofuran-2-yl)methoxy)(phenoxy)phosphoryl)-L-alaninate]: the EC50 with RSV strain A2 (setting [3]) was 0.35 µM; in the experiment with RSV A2 (setting [4]), 3.5 µM.

Consider `COCCCOC(=O)[C@H](C)NP(=O)(OC[C@@]1(C#N)O[C@@H](c2ccc3c(N)ncnn23)[C@H](O)[C@@H]1O)Oc1ccccc1` (mixture of isomers) [Example 58, 3-Methoxypropyl ((((2R,3S,4R,5S)-5-(4-aminopyrrolo[2,1-f][1,2,4]triazin-7-yl)-2-cyano-3,4-dihydroxytetrahydrofuran-2-yl)methoxy)(phenoxy)phosphoryl)-L-alaninate], for which, in the experiment on RSV A2 (setting [4]), the EC50 is 0.917 µM.

With `CC[C@H](NP(=O)(OC[C@@]1(C#N)O[C@@H](c2ccc3c(N)ncnn23)[C@H](O)[C@@H]1O)Oc1ccccc1)C(=O)OC1CCCC1` (single isomer, unassigned) [Example 110], the EC50 came to 0.281 µM in the experiment on RSV strain A2 and 0.339 µM with RSV A2 (NHBE cells, RSV A2, 4 days).

Regarding `C[C@H](NP(=O)(O)OC[C@@]1(C#N)O[C@@H](c2ccc3c(N)ncnn23)[C@H](O)[C@@H]1O)C(=O)OC1CCCCC1` [Example 202, cyclohexyl ((((2R,3S,4R,5S)-5-(4-aminopyrrolo[2,1-f][1,2,4]triazin-7-yl)-2-cyano-3,4-dihydroxytetrahydrofuran-2-yl)methoxy)(hydroxy)phosphoryl)-L-alaninate], the 50% effective concentration (EC50) in the experiment with RSV strain A2 (setting [1]) was 7.05 µM; in the experiment on RSV A2 (setting [2]), more than 2.95 µM.

Turning to `CC[C@H](NP(=O)(OC[C@@]1(C#N)O[C@@H](c2ccc3c(N)ncnn23)[C@H](O)[C@@H]1O)Oc1ccccc1)C(=O)OCC(C)(C)C` (stereo partly drawn) [Example 157, neopentyl (2S)-2-(((((2R,3S,4R,5S)-5-(4-aminopyrrolo[2,1-f][1,2,4]triazin-7-yl)-2-cyano-3,4-dihydroxytetrahydrofuran-2-yl)methoxy)(phenoxy)phosphoryl)amino)butanoate], the EC50 with RSV strain A2 (setting [3]) is 0.972 µM; with RSV A2 (setting [4]) it was 0.163 µM.

On to `CCOCCOCCOC(=O)[C@H](C)NP(=O)(OC[C@@]1(C#N)O[C@@H](c2ccc3c(N)ncnn23)[C@H](O)[C@@H]1O)Oc1ccccc1` (single isomer, unassigned) [Example 75], for which the EC50 with RSV strain A2 (setting [3]) is 1.26 µM.

As for `CCOC(=O)c1ccccc1OP1(=O)OC[C@@]2(C#N)O[C@@H](c3ccc4c(N)ncnn34)[C@H](O)[C@@H]2O1` (stereo partly drawn) [Example 224, ethyl 2-(((4aR,6S,7S,7aS)-6-(4-aminopyrrolo[2,1-f][1,2,4]triazin-7-yl)-4a-cyano-7-hydroxy-2-oxidotetrahydro-4H-furo[3,2-d][1,3,2]dioxaphosphinin-2-yl)oxy)benzoate], in the experiment on RSV A2 (human respiratory syncytial virus, NHBE, 96 h), the concentration for a half-maximal effect (EC50) was found to be 2.83 µM.

Take `CCC(CC)COC(=O)[C@@H](C)NP(=O)(OC[C@@]1(C#N)O[C@@H](c2ccc3c(N)ncnn23)[C@H](O)[C@@H]1O)Oc1ccccc1` (single isomer, unassigned) [Example 83]: the EC50 with RSV strain A2 is 5.3 µM; with RSV A2 (NHBE cells, RSV A2, 4 days), 0.953 µM.

Regarding `COC(=O)[C@H](C)NP(=O)(OC[C@@]1(C#N)O[C@@H](c2ccc3c(N)ncnn23)[C@H](O)[C@@H]1O)Oc1ccc(C[C@H](N)C(=O)OC)cc1` (single isomer, unassigned) [Example 63], the EC50 is 4.07 µM in the experiment with RSV strain A2 and more than 5 µM with RSV A2 (NHBE cells, RSV A2, 4 days).

With `CCC(CC)COC(=O)CNP(=O)(NCC(=O)OCC(CC)CC)OC[C@@]1(C#N)O[C@@H](c2ccc3c(N)ncnn23)[C@H](O)[C@@H]1O` [Example 226, 2-Ethylbutyl ((((2R,3S,4R,5S)-5-(4-aminopyrrolo[2,1-f][1,2,4]triazin-7-yl)-2-cyano-3,4-dihydroxytetrahydrofuran-2-yl)methoxy)((2-(2-ethylbutoxy)-2-oxoethyl)amino)phosphoryl)glycinate], the EC50 in the experiment with RSV strain A2 (setting [1]) stood at 1.91 µM; in the experiment with RSV A2 (setting [2]), 2.55 µM.

Consider `C[C@H](N[P@@](=O)(OC[C@@]1(C#N)O[C@@H](c2ccc3c(N)ncnn23)[C@H](O)[C@@H]1O)Oc1ccccc1)C(=O)OCC(C)(C)C` [Example 93], for which the EC50 in the experiment with RSV strain A2 was determined as 2.84 µM; in the experiment on RSV A2 (NHBE cells, RSV A2, 4 days), 0.085 µM.

On to `C[C@H](NP(=O)(OC[C@@]1(C#N)O[C@@H](c2ccc3c(N)ncnn23)[C@H](O)[C@@H]1O)Oc1ccccc1)C(=O)O[C@H]1CC[C@@H](C(F)(F)F)CC1` (single isomer, unassigned) [Example 179], for which the EC50 in the experiment on RSV strain A2 was 0.591 µM; in the experiment on RSV A2 (NHBE cells, RSV A2, 4 days), more than 4.8 µM.

On to `CCOC(=O)[C@H](C)NP(=O)(OC[C@@]1(C#N)O[C@@H](c2ccc3c(N)ncnn23)[C@H](O)[C@@H]1O)Oc1ccc(C(C)(C)C)cc1` (single isomer, unassigned) [Example 264], for which the concentration for a half-maximal effect (EC50) with RSV strain A2 was 0.041 µM.

In the case of `C[C@H](N[P@@](=O)(OC[C@@]1(C#N)O[C@@H](c2ccc3c(N)ncnn23)[C@H](O)[C@@H]1O)Oc1ccccc1)C(=O)O[C@H]1CC[C@H](C(C)(C)C)CC1` (single isomer, unassigned) [Example 23], the EC50 came to 0.207 µM in the experiment on RSV strain A2 (setting [3]) and 0.034 µM in the experiment with RSV A2 (setting [4]).

With `C[C@H](NP(=O)(OC[C@@]1(C#N)O[C@@H](c2ccc3c(N)ncnn23)[C@H](O)[C@@H]1O)Oc1ccccc1)C(=O)OCC(C)(C)C(F)(F)F` (single isomer, unassigned) [Example 261], in the experiment on RSV strain A2 (setting [3]), the EC50 was determined as 0.034 µM.

For the compound `CCC(CC)COC(=O)[C@H](CC(C)C)NP(=O)(OC[C@@]1(C#N)O[C@@H](c2ccc3c(N)ncnn23)[C@H](O)[C@@H]1O)Oc1ccccc1` (mixture of isomers) [Example 127, (2S)-2-ethylbutyl 2-(((((2R,3S,4R,5S)-5-(4-aminopyrrolo[2,1-f][1,2,4]triazin-7-yl)-2-cyano-3,4-dihydroxytetrahydrofuran-2-yl)methoxy)(phenoxy)phosphoryl)amino)-4-methylpentanoate], the EC50 in the experiment on RSV strain A2 (setting [3]) came out at 1.73 µM; in the experiment with RSV A2 (setting [4]) it was 0.434 µM.
